# Reference: US20050080054A1, “Treating androgen decline in aging male (ADAM)-associated conditions with SARMS” (priority 2002, published 2005)
# What was measured:
# Assay type in all cases: in vivo, rat
# [1] = Plasma osteocalcin levels in male rats of varying hormonal status; details: 0.5 mg/day; for Plasma osteocalcin levels: 14 days, n = 5
# Description: (§1) Compound VI and Compound VII were synthesized and characterized in the laboratory of Dr. Duane Miller at the University of Tennessee, Memphis, Tenn. Male Sprague-Dawley rats were purchased from Harlan Biosciences (Indianapolis, Ind.). The animals were maintained on a 12-h cycle of light and dark with food and water available ad libitum. All animal studies were reviewed and approved by the Animal Care and Use Committee of The Ohio State University, and conformed to the Principles of Laboratory Animal Care (NIH publication #85-23, revised 1985). Immature male Sprague-Dawley rats weighing 187 to 214 g were randomly distributed into 9 groups of 5 animals. One day before the initiation of drug treatment, groups 4 through 6 and groups 7 through 9 received unilateral or bilateral orchidectomy, respectively, via a midline scrotal incision. […] All drugs given to animals were freshly prepared as solutions in polyethylene glycol 300 (PEG 300). Groups 4 and 7 received treatment with vehicle alone (i.e., PEG 300). Animals in groups 3, 6, and 9 received testosterone propionate (TP, 0.5 mg/day) via implantation of subdermal osmotic pumps (Model 2002, Durect Corporation, Palo Alto, Calif.). Animals in groups 2, 5, and 8 received Compound VI or Compound VII (0.5 mg/day) via implantation of subdermal osmotic pumps. After 14 days of drug treatment, rats were weighed, anesthetized, and sacrificed. Blood samples were collected by venipuncture of the abdominal aorta. Plasma samples were analyzed for testosterone, FSH, LH and osteocalcin. Testosterone concentrations were measured by AniLytics Inc. (Gaithersburg, Md.). FSH and LH levels were measured by the National Hormone and Peptide Program (Dr. A F Parlow, UCLA, CA). Plasma osteocalcin levels were determined using a commercially available rat osteocalcin EIA kit from Biomedical Technologies Inc. (Stoughton, Mass.). The ventral prostates, seminal vesicles, and levator ani muscle were removed and weighed. Osmotic pumps were also removed from animals to check for correct pump operation. The weights of all organs were normalized to body weight, and analyzed for any statistically significant differences between groups using single-factor ANOVA with the alpha value set a priori at p<0.05. The weights of prostates and seminal vesicles were used as indices for evaluation of androgenic activity, and the levator ani muscle weight was used to evaluate the anabolic activity. Statistical analyses of parameters from complete blood count or serum chemical profiling, wherever applicable, were performed by single-factor ANOVA with the alpha value set a priori at p<0.05.
# [2] = Plasma LH levels in male rats of varying hormonal status; details: 0.5 mg/day; for Plasma LH levels: 14 days, n = 5
# Description: as §1
# [3] = Plasma testosterone levels in male rats of varying hormonal status; details: 0.5 mg/day; for Plasma testosterone levels: osmotic pump, 14 days, n = 5
# Description: as §1
# [4] = system: myosin heavy chain (MHC) IIb mRNA; experiment: Myosin heavy chain (MHC) IIb mRNA expression in masseter muscle by RT-PCR; details: masseter muscle of intact female rats; untreated control = 100%
# Description: MHC is the predominant protein in skeletal muscle encoded by a multigene family expressed in a tissue-specific and developmentally regulated manner [Adams et al 1999]. In steady state, mRNA expression usually parallels the pattern of MHC protein expression. Because transcription of MHC mRNA occurs in advance of MHC protein translation, and the increased sensitivity of RT-PCR compared to western blotting, rapid changes in mRNA expression can be detected and used to analyze the subtle dynamic effects of muscle anabolism [Wright et al 1997].
# The masseter muscle dissected from untreated intact female rats was set as the control level (representing 100%) of MHC IIb expression (FIG. 7A). Intact female rats treated with androgens were evaluated against the untreated controls for the effect of treatment on MHC IIb from masseter.
# [5] = system: female rats after ovariectomy; experiment: Bone biomechanical strength, cortical thickness, trabecular density and muscle mass in ovariectomized and intact female rats
# Description: (§2) One hundred ten female rats were assigned to one of eleven treatment groups. Groups 1-8 were ovariectomized on day one of the study. Groups 9-11 were intact animals. Groups 1-6 received Compound VI by daily subcutaneous injection at doses of 0.1, 0.3, 0.5, 0.75, 1.0, and 3 mg/day, respectively. Groups 7 and 11 received dihydrotestosterone (DHT) at a dose of 1 mg/day. Groups 8 and 9 were ovariectomized and intact control groups, respectively. Group 10 received Compound VI at a dose of 1.0 mg/day. All animals were treated for 120 days. Bone mineral content (BMC) was determined using dual energy x-ray absorptiometry (DEXA) on days 1, 30, 60, 90, and 120.
# [6] = Plasma FSH levels in male rats of varying hormonal status; details: 0.5 mg/day; for Plasma FSH levels: 14 days, n = 5
# Description: as §1
# [7] = system: female rats after ovariectomy; experiment: Bone mineral content (DEXA) in female rats after ovariectomy
# Description: as §2
# [8] = TP statement for castrated male rats
smiles,measurement,setting,value
CC(=O)Nc1ccc(OC[C@](C)(O)C(=O)Nc2ccc([N+](=O)[O-])c(C(F)(F)F)c2)cc1 [Compound VI],effect on plasma osteocalcin levels,[1]; Compound VI statement for hemi-orchidectomized and castrated animals,significant increase
same,Plasma osteocalcin levels,[1]; castrated male rats,94.215 ± 12.568 ng/mL
same,Plasma osteocalcin levels,[1]; hemi-orchidectomized male rats,89.804 ± 15.517 ng/mL
same,Plasma osteocalcin levels,[1]; intact male rats,55.584 ± 9.715 ng/mL
same,effect on plasma LH levels,[2]; [8],no effect
same,Plasma LH levels,[2]; castrated male rats,8.644 ± 2.799 ng/mL
same,Plasma LH levels,[2]; hemi-orchidectomized male rats,0.124 ± 0.115 ng/mL
same,Plasma LH levels,[2]; intact male rats,0.026 ± 0.037 ng/mL
same,Plasma testosterone levels,[3]; castrated male rats,0.066 ± 0.148 ng/mL
same,Plasma testosterone levels,[3]; hemi-orchidectomized male rats,1.404 ± 0.810 ng/mL
same,Plasma testosterone levels,[3]; intact male rats,1.830 ± 0.510 ng/mL
same,effect on testosterone levels,"[3]; intact, hemi-orchidectomized or castrated male rats",did not affect testosterone levels
same,"MHC type IIb transcription, of untreated control",[4],137%
same,biomechanical strength of the L5 vertebra and femur,[5]; FIG. 11,increased biomechanical strength
same,cortical thickness in the femoral mid-shaft,[5]; FIG. 12,increased cortical thickness
same,trabecular bone loss in the distal femur,[5]; OVX animals,only partially prevented trabecular bone loss
same,muscle mass,[5]; gonadectomized and intact animals,increased muscle mass
same,trabecular density of the distal femur,[5]; intact animals,proliferative effect
same,effect on plasma FSH levels,[6]; [8],no effect
same,Plasma FSH levels,[6]; castrated male rats,69.6 ± 11.7 ng/mL
same,Plasma FSH levels,[6]; hemi-orchidectomized male rats,15.2 ± 2.2 ng/mL
same,Plasma FSH levels,[6]; intact male rats,14.4 ± 1.7 ng/mL
same,whole body BMC,[7]; FIG. 9,increased whole body BMC in a dose-dependent and time-dependent manner
same,effect at L2-L4 vertebra and proximal femur,[7]; FIG. 10,protective effect
same,potency comparison Compound VI versus DHT,[7]; ovariectomized female rat bone model,more potent than DHT
same,bone resorption,"[7]; ovariectomized female rats, 120 days",inhibited bone resorption
same,increase in BMC,"[7]; ovariectomized female rats, 0.1 mg/day s.c. daily, treated for 120 days (group 1)",22.9%
same,increase in BMC,"[7]; ovariectomized female rats, 0.3 mg/day s.c. daily, treated for 120 days (group 2)",26.0%
same,increase in BMC,"[7]; ovariectomized female rats, 0.5 mg/day s.c. daily, treated for 120 days (group 3)",28.5%
same,increase in BMC,"[7]; ovariectomized female rats, 0.75 mg/day s.c. daily, treated for 120 days (group 4)",30.5%
same,increase in BMC,"[7]; ovariectomized female rats, 1.0 mg/day, treated for 120 days (group 5; DHT 1 mg/day)",30.0%
same,increase in BMC,"[7]; ovariectomized female rats, 3 mg/day s.c. daily, treated for 120 days (group 6)",40.1%
